From publication PMC6061170, “Synthesis and biological investigations of 3β-aminotropane arylamide derivatives with atypical antipsychotic profile” (Medicinal Chemistry Research, 2018)
Several values for one entry are separate records, joined by “and”; a condition that tells them apart may be missing. Identical values can stand only once. Counter-ions that a name gives are not always drawn. Like-named read-outs stand apart in the source and are kept apart here.

Key:
[1] = target: dopamine D2 receptors (Rattus norvegicus, UniProt P61169); test: Radioligand binding assay, D2 receptors
dopamine D2 receptors, sequence (P61169 1-415 isoform P61169-2): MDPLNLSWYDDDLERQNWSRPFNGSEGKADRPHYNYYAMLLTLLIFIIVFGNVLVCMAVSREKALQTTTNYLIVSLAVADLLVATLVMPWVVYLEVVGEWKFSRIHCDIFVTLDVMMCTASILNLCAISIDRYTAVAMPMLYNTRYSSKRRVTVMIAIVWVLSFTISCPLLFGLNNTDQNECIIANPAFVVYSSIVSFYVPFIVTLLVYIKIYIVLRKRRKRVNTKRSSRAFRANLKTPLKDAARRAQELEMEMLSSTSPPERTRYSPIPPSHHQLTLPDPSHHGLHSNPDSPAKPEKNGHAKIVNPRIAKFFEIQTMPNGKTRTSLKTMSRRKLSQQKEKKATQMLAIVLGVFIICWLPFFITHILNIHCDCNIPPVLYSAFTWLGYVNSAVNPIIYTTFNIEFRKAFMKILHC

[2] = target: T1, serotonin 5-HT1A receptors (Rattus norvegicus, UniProt P19327); test: Radioligand binding assay, 5-HT1A receptors; conditions: for IC50: rat brain tissues, read-out: 5-HT1A IC50 [nM] ± SEM
T1 construct: from tissue; host or cells: rat brain tissues
T1 sequence (P19327 1-422): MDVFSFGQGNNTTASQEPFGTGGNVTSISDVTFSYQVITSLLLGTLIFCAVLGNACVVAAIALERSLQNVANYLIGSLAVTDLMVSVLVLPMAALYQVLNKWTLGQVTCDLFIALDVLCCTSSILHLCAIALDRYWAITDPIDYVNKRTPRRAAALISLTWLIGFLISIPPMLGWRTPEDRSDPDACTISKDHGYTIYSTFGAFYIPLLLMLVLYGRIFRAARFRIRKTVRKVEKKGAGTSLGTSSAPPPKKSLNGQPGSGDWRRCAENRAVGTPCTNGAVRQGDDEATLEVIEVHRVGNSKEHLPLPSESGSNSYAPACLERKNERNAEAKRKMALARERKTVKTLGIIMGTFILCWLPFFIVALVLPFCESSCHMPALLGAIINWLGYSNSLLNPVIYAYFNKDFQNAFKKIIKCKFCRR
Procedure: All compounds were tested for their affinities for 5-HT1A, 5-HT2A, and D2 receptors according to previously described procedures (Stefanowicz et al. [2016]).
Competition binding studies were performed according to a previously described procedure in rat brain tissues (Stefanowicz et al. [2016]).

[3] = target: T2, serotonin 5-HT2A receptors (Rattus norvegicus, UniProt P14842); test: Radioligand binding assay, 5-HT2A receptors; conditions: for IC50: read-out: 5-HT2A IC50 [nM] ± SEM
T2 construct: from tissue; host or cells: rat brain tissues
T2 sequence (P14842 whole entry): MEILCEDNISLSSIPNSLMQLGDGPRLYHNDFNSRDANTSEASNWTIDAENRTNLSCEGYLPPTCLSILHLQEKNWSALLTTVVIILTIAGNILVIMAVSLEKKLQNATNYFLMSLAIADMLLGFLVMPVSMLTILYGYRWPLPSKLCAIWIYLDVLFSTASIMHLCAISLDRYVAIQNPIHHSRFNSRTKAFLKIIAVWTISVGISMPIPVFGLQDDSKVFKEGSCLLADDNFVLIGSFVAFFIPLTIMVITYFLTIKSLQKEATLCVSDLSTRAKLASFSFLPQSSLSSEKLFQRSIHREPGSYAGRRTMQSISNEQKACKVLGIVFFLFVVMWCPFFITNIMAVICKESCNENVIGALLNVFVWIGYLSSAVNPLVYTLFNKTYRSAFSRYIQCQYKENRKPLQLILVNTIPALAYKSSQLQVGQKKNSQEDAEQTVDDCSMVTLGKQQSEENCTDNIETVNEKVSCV

[4] = test system: CD-1 mice; test: Spontaneous locomotor activity; assay type: in vivo; conditions: for decrease of spontaneous locomotor activity: 10 mg/kg
[5] = test system: Albino Swiss mice; test: Four-plate test
[6] = test system: Albino Swiss mice; test: Forced swim test; conditions: for Immobility time (s) Mean ± SEM: last 4 min of session
[7] = test system: CD-1 mice; test: MK-801-induced hyperlocomotor activity
[8] = test system: CD-1 mice; test: d-Amphetamine-induced hyperlocomotor activity; conditions: for decrease of locomotor hyperactivity vs. respective d-amphetamine group: doses of 5 and 10 mg/kg i.p.
[9] = rat brain tissues, read-out: D2 IC50 [nM] ± SEM
[10] = rat brain tissues, read-out: 5-HT2A Ki [nM] ± SEM
[11] = 10 mg/kg i.p. 30 min before test
[12] = 2.5 mg/kg i.p. 30 min before test
[13] = 5 mg/kg i.p. 30 min before test
[14] = compound 1.25 mg/kg i.p. 30 min + MK-801 0.2 mg/kg
[15] = compound 2.5 mg/kg i.p. 30 min + MK-801 0.2 mg/kg
[16] = compound 5 mg/kg i.p. 30 min + MK-801 0.2 mg/kg
[17] = compound 5 mg/kg i.p. + d-amphetamine 2.5 mg/kg s.c.
[18] = compound 10 mg/kg i.p. + d-amphetamine 2.5 mg/kg s.c.
[19] = 1.25 mg/kg i.p. 30 min before test
[20] = compound 10 mg/kg i.p. 30 min + MK-801 0.2 mg/kg

Row | Compound | Ki [1] [µM] | IC50 [1, 9] [nM] | Ki [2] [µM] | IC50 [2] [nM] | IC50 ([3]; rat brain tissues) [nM] | Ki [3, 10] [nM] | Number of crossings/60 min Mean ± SEM [4, 11] | melting point [°C] | Number of punished crossings /1 min Mean ± SEM [5, 12] [crossings/1 min] | Number of punished crossings /1 min Mean ± SEM [5, 13] [crossings/1 min] | Number of punished crossings /1 min Mean ± SEM [5, 11] | Immobility time (s) Mean ± SEM [6, 12] [s] | Number of crossings/60 min Mean ± SEM [7, 14] | Number of crossings/60 min Mean ± SEM [7, 15] | Number of crossings/60 min Mean ± SEM [7, 16] | Number of crossings/60 min Mean ± SEM [8, 17] | Number of crossings/60 min Mean ± SEM [8, 18] | decrease of locomotor hyperactivity vs. respective d-amphetamine group [8] | Number of crossings/60 min Mean ± SEM [4, 12] | Number of crossings/60 min Mean ± SEM [4, 13] | further results
1 | Cc1cccc(CN2C3CCC2CC(NC(=O)c2ccc4ccccc4n2)C3)c1 (stereo not drawn) [Compound 12e] | 0.0522 ± 0.0034 | 260 ± 16.7 | 0.0553 ± 0.0083 | 166 ± 25 | > 10000 | > 10000 | 1034 ± 255.9 p < 0.05 F(1,18) = 5.4398; p < 0.05 crossings/60 min | 113.8 to 114.7 | 3.5 ± 0.3 | 2.9 ± 0.3 | 3.8 ± 0.5 F(3,36) = 1.3827; NS crossings/1 min | 172.14 ± 11.6 | 4019.3 ± 341.3; ns, ns crossings/60 min | 5440.1 ± 937.3 ns, ns crossings/60 min | 3580.7 ± 384.9; ns, ns F(5,48) = 2.8885; p < 0.05 crossings/60 min | 2651.0 ± 512.6; p < 0.01 vs. amph.; ns vs. contr crossings/60 min | 909.9 ± 11.3; p < 0.0001 vs. amph.; ns vs. contr F(4,42) = 10.584; p < 0.0001 crossings/60 min | 60–86% | – | – | effect on spontaneous locomotor activity ([4]; doses used in hyperlocomotor activity tests): did not change the spontaneous locomotor activity; Immobility time (s) Mean ± SEM [6, 11]: 183.33 ± 12.3 F(3,30) = 1.2074; NS s; effect on MK-801-induced hyperlocomotor activity ([7]; 5 mg/kg, tendency to decrease): did not reach a statistically significant level; Number of crossings/60 min Mean ± SEM ([7]; compound 0.625 mg/kg i.p. 30 min + MK-801 0.2 mg/kg): 4375.1 ± 583.4; ns, ns crossings/60 min; Number of crossings/60 min Mean ± SEM ([8]; compound 2.5 mg/kg i.p. + d-amphetamine 2.5 mg/kg s.c.): 2993.0 ± 301.0; p < 0.01 vs. amph.; ns vs. contr crossings/60 min
2 | Cc1ccc(CN2C3CCC2CC(NC(=O)c2ccc4ccccc4n2)C3)cc1 (stereo not drawn) [Compound 12i, N-[8-(4-methylbenzyl)-8-azabicyclo[3.2.1]oct-3β-yl)]-quinoline-2-carboxamide oxalate] | 0.0074 ± 0.0004 | – | 0.0435 ± 0.0013 | 131 ± 4.4 | > 10000 | > 10000 | – | – | 3.1 ± 0.3 | 2.3 ± 0.4 | 1.7 ± 0.4; p < 0.05 F(3,35) = 4.2954; p < 0.05 crossings/1 min | 149.89 ± 12.7 | – | – | 2432.8 ± 526.6; ns vs. contr p < 0.01 vs. MK crossings/60 min | 1771.3 ± 470.4; p < 0.01 vs. amph.; ns vs. contr crossings/60 min | 2046.2 ± 63.1; p < 0.01 vs. amph.; ns vs. contr F(3,34) = 6.5110; p < 0.01 crossings/60 min | 60–86% | 2676.0 ± 336.7; p < 0.01 crossings/60 min | 1135.8 ± 184.3 F(3,34) = 8.8733; p < 0.001 crossings/60 min | IC50 [1]: 37 ± 2.1 nM; Number of crossings/60 min Mean ± SEM [4, 19]: 1573.6 ± 149.3 crossings/60 min; decrease of spontaneous locomotor activity [4]: about 70%; Immobility time (s) Mean ± SEM [6, 19]: 132.00 ± 2.93 s; Immobility time (s) Mean ± SEM [6, 13]: 219.67 ± 1.43; p < 0.05 F(3,26) = 7.5750; p < 0.001 s; effect on MK-801-induced hyperlocomotor activity ([7]; 5 mg/kg and 10 mg/kg i.p.): significantly reduced; Number of crossings/60 min Mean ± SEM [7, 20]: 805.4 ± 147.2 ns vs. contr p < 0.0001 vs. MK F(3,30) = 14.206; p < 0.0001 crossings/60 min
3 | Nc1ccccc1CN1C2CCC1CC(NC(=O)c1ccc3ccccc3c1)C2 (stereo not drawn) [Compound 19a] | 0.0415 ± 0.0015 | 209 ± 5.5 | 0.053 ± 0.002 | 159 ± 5.5 | 173 ± 19.3 | – | 491.6 ± 126.5 F(2,26) = 5.3557; p < 0.05 crossings/60 min | 172.7 to 173.3 | 3.2 ± 0.5 | 1.1 ± 0.2 | 3.2 ± 0.5 F(3,33) = 5.6670; p < 0.01 crossings/1 min | 128.89 ± 12.3 | 4646.4 ± 675.6; ns, ns crossings/60 min | 3832.0 ± 991.3; ns, ns F(3,33) = 5.2088; p < 0.01 crossings/60 min | 2915.4 ± 580.2; p < 0.001 vs. MK; ns vs. contr F(2,27) = 16.679; p < 0.0001 crossings/60 min | 4328.6 ± 1146.8 crossings/60 min | 950.0 ± 411.7; p < 0.01 vs. amph.; ns vs. contr F(3,35) = 5.6910; p < 0.01 crossings/60 min | – | 1634.4 ± 511.9 F(2,27) = 0.7417; NS crossings/60 min | 1480.4 ± 302.3 crossings/60 min | Ki [3]: 46.8 ± 5.5 nM; decrease of spontaneous locomotor activity [4]: about 70%; Immobility time (s) Mean ± SEM [6, 19]: 120.00 ± 16.6 s; decrease of immobility time vs. respective control group ([6]; 5 mg/kg i.p.): about 43%; Immobility time (s) Mean ± SEM [6, 13]: 96.56 ± 16.2; p < 0,01 F(3,31) = 4.5279; p < 0.01 s; effect on MK-801-induced hyperlocomotor activity ([7]; 5 mg/kg and 10 mg/kg i.p.): significantly reduced; Number of crossings/60 min Mean ± SEM [7, 20]: 808.7 ± 66.3; p < 0.0001 vs. Mk; p < 0.05 vs. contr F(2,20) = 23.813; p < 0.001 crossings/60 min; activity in d-amphetamine-induced hyperlocomotor activity test ([8]; i.p.): active in this test only at a dose of 10 mg/kg i.p.
4 | C[C@]12N[C@H](Cc3ccccc31)c1ccccc12 [MK-801, reference compound] | – | – | – | – | – | – | – | – | – | – | – | – | – | – | – | – | – | – | – | – | Number of crossings/60 min Mean ± SEM ([7]; MK-801 alone 0.2 mg/kg i.p. 15 min before test): 4708.1 ± 522.1; p < 0.01 vs. contr crossings/60 min and 6247.1 ± 1063.8; p < 0.01 vs. contr crossings/60 min and 8757.9 ± 1378; p < 0.00001 vs. contr crossings/60 min and 6329.9 ± 1012.5; p < 0.05 vs. contr crossings/60 min
